The target in assay [1] is T1, HLA-DRB1*04:01 (Homo sapiens, UniProt P01903+P01911, A100K/A169T/F76Y/I96L/K127E/L162R/M171V/N62H/P40V/Q125Y/R42H/S133A/S149N/S66Y/V115G/V209L/W38E).
T1 construct: EBV transformed homozygous cell lines were used as sources of MHC molecules; endogenous in cells; host or cells: EBV transformed homozygous cell lines
The assay can be described thus: HLA class II peptide binding, inhibition of radiolabeled peptide binding to purified MHC.

Assay [2] concerns the target T2, HLA-DRB1*01:01 (Homo sapiens, UniProt P01903+P01911, A100R/D57E/F55L/F60I/F76Y/I96L/L162R/M171V/P40L/Q125E/R42F/V115G/Y59C).
T2 construct: EBV transformed homozygous cell lines were used as sources of MHC molecules; endogenous in cells; host or cells: EBV transformed homozygous cell lines
The assay is described as above.

Setting [3] is: wild-type (unmodified Arg) 15-mer peptide, purified HLA-DRB1*04:01, read-out: DRB1*04:01 binding capacity, WT peptide (IC50 nM).
Setting [4] is: wild-type (unmodified Arg) 15-mer peptide, purified HLA-DRB1*01:01, read-out: DRB1*01:01 binding capacity, WT peptide (IC50 nM).
The mark [5] stands for this setting: citrullinated 15-mer peptide (X = citrulline), purified HLA-DRB1*04:01, read-out: DRB1*04:01 binding capacity, Cit peptide (IC50 nM).
Where [6] appears, read: citrullinated 15-mer peptide (X = citrulline), purified HLA-DRB1*01:01, read-out: DRB1*01:01 binding capacity, Cit peptide (IC50 nM).
Setting [7] is: citrullinated 15-mer (X), purified MHC, inhibition of radiolabeled peptide binding, dash = IC50 >40,000 nM, read-out: DRB1*04:01 binding capacity, Cit peptide (IC50 nM).
Where [8] appears, read: citrullinated 15-mer (X), purified MHC, inhibition of radiolabeled peptide binding, dash = IC50 >40,000 nM, read-out: DRB1*01:01 binding capacity, Cit peptide (IC50 nM).
The mark [9] stands for this setting: read-out: DRB1*04:01 binding capacity, WT peptide (IC50 nM).
Setting [10] is: read-out: DRB1*01:01 binding capacity, WT peptide (IC50 nM).
Where [11] appears, read: citrullinated peptide as listed (X at Cit position), read-out: DRB1*04:01 binding capacity Cit peptide (IC50 nM).
The mark [12] stands for this setting: citrullinated peptide as listed (X at Cit position), read-out: DRB1*01:01 binding capacity Cit peptide (IC50 nM).

These results are taken from article PMC5421785, “Citrullination only infrequently impacts peptide binding to HLA class II MHC” (PLoS ONE, 2017).

Read-outs that look alike come from different tables or passages of the source. Square brackets hold non-standard residues; d marks the D form. Ends that are not written are not given here. Peptide text beside a SMILES is read from it. Cit = NC(=O)NCCC[C@H](N)C(=O)O Some results are limits rather than exact numbers.

What is called IC50 is the concentration that inhibits the measured activity by half.

For DALKGTNESLERQMR [Vimentin 331 WT], the results for the half-maximal inhibitory concentration (IC50) in assay [1] (setting [3]) and in assay [2] (setting [4]) were 18000 nM and 39900 nM, respectively.
In the case of `CSCC[C@H](NC(=O)[C@@H]1CCCN1C(=O)CNC(=O)[C@@H]1CCCN1C(=O)[C@H](CO)NC(=O)CNC(=O)[C@H](CC(N)=O)NC(=O)[C@@H](N)CCC(=O)O)C(=O)NCC(=O)N1CCC[C@H]1C(=O)N[C@@H](CCCNC(N)=O)C(=O)NCC(=O)N[C@@H](CC(C)C)C(=O)N1CCC[C@H]1C(=O)NCC(=O)O` [ENGSPGPMGPXGLPG] (H-ENGSPGPMGP[Cit]GLPG-OH), the IC50 in assay [1] (setting [5]) is more than 40000 nM; in assay [2] (setting [6]), 31400 nM.
On to `CC(C)C[C@H](NC(=O)[C@H](C)NC(=O)[C@H](C)NC(=O)[C@@H](NC(=O)[C@H](CC(C)C)NC(=O)[C@H](CC(=O)O)NC(=O)[C@@H]1CCCN1C(=O)[C@H](CCCCN)NC(=O)[C@@H](N)CO)[C@@H](C)O)C(=O)N[C@@H](CCCNC(=N)N)C(=O)N[C@@H](CC(=O)O)C(=O)N[C@H](C(=O)N[C@@H](CCCNC(N)=O)C(=O)N[C@@H](CCC(N)=O)C(=O)N[C@@H](CCC(N)=O)C(=O)O)C(C)C` [SKPDLTAALRDVXQQ] (H-SKPDLTAALRDV[Cit]QQ-OH), for which the half-maximal inhibitory concentration (IC50) in assay [1] (setting [7]) stood at 29700 nM; in assay [2] (setting [8]), 5590 nM.
In the case of `CC[C@H](C)[C@H](NC(=O)[C@H](CCCCN)NC(=O)[C@H](CC(N)=O)NC(=O)[C@H](CCC(N)=O)NC(=O)[C@H](CCC(N)=O)NC(=O)[C@H](CCC(=O)O)NC(=O)[C@H](CC(C)C)NC(=O)[C@H](Cc1ccccc1)NC(=O)[C@H](CCCNC(=N)N)NC(=O)[C@@H](N)C(C)C)C(=O)N[C@@H](CC(C)C)C(=O)N[C@@H](CC(C)C)C(=O)N[C@@H](C)C(=O)N[C@@H](CCC(=O)O)C(=O)N[C@@H](CC(C)C)C(=O)O` [Vimentin 121 WT], the IC50 in assay [1] (setting [9]) is 513 nM; in assay [2] (setting [10]), 5.7 nM.
The corresponding values for AANRNNDALRQAKQE [Vimentin 301 WT] are more than 40000 nM and more than 40000 nM.
For `CSCC[C@H](NC(=O)[C@H](Cc1ccc(O)cc1)NC(=O)[C@H](CCC(N)=O)NC(=O)[C@H](CC(C)C)NC(=O)[C@@H]1CCCN1C(=O)[C@H](CC(=O)O)NC(=O)[C@@H]1CCCN1C(=O)CNC(=O)[C@H](CCCCN)NC(=O)[C@H](CCC(=O)O)NC(=O)[C@H](CCCNC(N)=O)NC(=O)[C@@H]1CCCN1C(=O)CNC(=O)[C@@H](N)CC(C)C)C(=O)N[C@@H](CCCNC(=N)N)C(=O)O` [LGPXEKGPDPLQYMR] (H-LGP[Cit]EKGPDPLQYMR-OH), the IC50 was more than 40000 nM in assay [1] (setting [5]) and 10900 nM in assay [2] (setting [6]).
The corresponding values for `CC[C@H](C)[C@H](NC(=O)[C@@H](N)CCC(=O)O)C(=O)N[C@@H](C)C(=O)N[C@H](C(=O)N[C@@H](Cc1ccc(O)cc1)C(=O)N[C@@H](CCCNC(=N)N)C(=O)N[C@@H](CCCCN)C(=O)N[C@@H](CC(C)C)C(=O)N[C@@H](CC(C)C)C(=O)N[C@@H](CCC(=O)O)C(=O)NCC(=O)N[C@@H](CCC(=O)O)C(=O)N[C@@H](CCC(=O)O)C(=O)N[C@@H](CO)C(=O)N[C@@H](CCCNC(N)=O)C(=O)O)[C@@H](C)O` [EIATYRKLLEGEESX] (H-EIATYRKLLEGEES[Cit]-OH) are 4300 nM and 470 nM.
For the compound `CSCC[C@H](NC(=O)[C@H](CCC(=O)O)NC(=O)[C@H](CCC(=O)O)NC(=O)[C@H](CCC(=O)O)NC(=O)[C@H](Cc1ccc(O)cc1)NC(=O)[C@H](CC(C)C)NC(=O)[C@H](CC(=O)O)NC(=O)CNC(=O)[C@@H](N)CC(C)C)C(=O)N[C@@H](CCCNC(N)=O)C(=O)N[C@@H](CCC(=O)O)C(=O)N[C@@H](CC(C)C)C(=O)N[C@@H](CCCNC(=N)N)C(=O)N[C@@H](CCCNC(=N)N)C(=O)N[C@@H](CCC(N)=O)C(=O)O` [LGDLYEEEMXELRRQ], the IC50 is more than 40000 nM in assay [1] (setting [7]) and 13800 nM in assay [2] (setting [8]).
Consider `CC(C)C[C@H](NC(=O)[C@H](CCCNC(N)=O)NC(=O)[C@@H](NC(=O)[C@H](C)NC(=O)[C@H](CO)NC(=O)[C@H](CO)NC(=O)[C@H](CCCNC(=N)N)NC(=O)[C@@H](NC(=O)[C@H](C)NC(=O)[C@@H](N)Cc1ccc(O)cc1)[C@@H](C)O)C(C)C)C(=O)N[C@@H](CCCNC(=N)N)C(=O)N[C@@H](CO)C(=O)N[C@@H](CO)C(=O)N[C@H](C(=O)N1CCC[C@H]1C(=O)O)C(C)C` [YATRSSAVXLRSSVP] (H-YATRSSAV[Cit]LRSSVP-OH), for which the results for the IC50 in assay [1] (setting [7]) and in assay [2] (setting [8]) were 3220 nM and 41 nM, respectively.
The corresponding values for `CC(C)C[C@H](NC(=O)[C@H](CC(=O)O)NC(=O)[C@H](CC(C)C)NC(=O)[C@H](CCCNC(N)=O)NC(=O)[C@H](C)NC(=O)[C@H](CC(C)C)NC(=O)[C@H](CO)NC(=O)[C@H](C)NC(=O)[C@H](CC(N)=O)NC(=O)[C@H](CC(=O)O)NC(=O)[C@@H](NC(=O)[C@H](CC(=O)O)NC(=O)[C@H](CCC(N)=O)NC(=O)[C@H](CCCNC(=N)N)NC(=O)[C@@H](N)Cc1ccccc1)C(C)C)C(=O)O` [FRQDVDNASLAXLDL] (H-FRQDVDNASLA[Cit]LDL-OH) are 279 nM and 3940 nM.
Consider RQVQSLTCEVDALKG [Vimentin 321 WT], for which the figures for the IC50 in assay [1] (setting [3]) and in assay [2] (setting [4]) were 9140 nM and 2730 nM, respectively.
Take NDRFANYIDKVRFLE [Vimentin 111 WT]: the concentration for half-maximal inhibition (IC50) in assay [1] (setting [9]) is 16400 nM; in assay [2] (setting [10]), 862 nM.
In the case of `CC[C@H](C)[C@H](NC(=O)[C@H](CC(=O)O)NC(=O)[C@H](CCC(=O)O)NC(=O)[C@H](C)NC(=O)[C@H](CC(C)C)NC(=O)[C@H](CC(N)=O)NC(=O)[C@H](CC(=O)O)NC(=O)[C@H](CCCNC(N)=O)NC(=O)[C@H](CCC(=O)O)NC(=O)[C@@H](NC(=O)[C@H](CCC(=O)O)NC(=O)[C@@H](N)C(C)C)C(C)C)C(=O)N[C@@H](CCSC)C(=O)N[C@@H](CCCNC(=N)N)C(=O)N[C@@H](CC(C)C)C(=O)O` [VEVEXDNLAEDIMRL] (H-VEVE[Cit]DNLAEDIMRL-OH), the IC50 in assay [1] (setting [7]) was 16300 nM; in assay [2] (setting [8]), 27100 nM.
With GAEGPPGPQGLAGQR [Collagen 966 WT], the IC50 in assay [1] (setting [3]) and in assay [2] (setting [4]) was more than 40000 nM in each case.
AAGVKGDRGETGAVG [Collagen 1051 WT]: the half-maximal inhibitory concentration (IC50) in assay [1] (setting [3]) is 25200 nM; in assay [2] (setting [4]), 1150 nM.
Turning to `CC(C)[C@H](NC(=O)[C@H](CCC(N)=O)NC(=O)[C@H](CCCNC(=N)N)NC(=O)[C@H](CCCNC(N)=O)NC(=O)[C@H](Cc1ccc(O)cc1)NC(=O)[C@H](CCC(=O)O)NC(=O)[C@@H](NC(=O)[C@H](CO)NC(=O)[C@H](CCC(=O)O)NC(=O)[C@H](CCC(N)=O)NC(=O)[C@H](CCCCN)NC(=O)[C@H](C)NC(=O)[C@@H](N)CCC(N)=O)[C@@H](C)O)C(=O)N[C@@H](CCC(N)=O)C(=O)N[C@@H](CO)C(=O)O` [QAKQESTEYXRQVQS] (H-QAKQESTEY[Cit]RQVQS-OH), the IC50 was more than 40000 nM in assay [1] (setting [5]) and 9030 nM in assay [2] (setting [6]).
Take DNASLARLDLERKVE [Vimentin 211 WT]: the half-maximal inhibitory concentration (IC50) in assay [1] (setting [9]) is 18800 nM; in assay [2] (setting [10]), 7850 nM.
The corresponding values for ELRRQVDQLTNDKAR [Vimentin 156 WT] are 5240 nM and 568 nM.
The corresponding values for NTLQSFRQDVDNASL [Vimentin 201 WT] are 408 nM and 1840 nM.
On to `CC(C)C[C@H](NC(=O)[C@@H](N)CO)C(=O)N[C@@H](Cc1ccc(O)cc1)C(=O)N[C@@H](C)C(=O)N[C@@H](CO)C(=O)N[C@@H](CO)C(=O)N1CCC[C@H]1C(=O)NCC(=O)NCC(=O)N[C@H](C(=O)N[C@@H](Cc1ccc(O)cc1)C(=O)N[C@@H](C)C(=O)N[C@H](C(=O)N[C@@H](CCCNC(=N)N)C(=O)N[C@@H](CO)C(=O)O)[C@@H](C)O)C(C)C` [Vimentin 51 WT], for which the figures for the 50% inhibitory concentration (IC50) in assay [1] (setting [9]) and in assay [2] (setting [10]) were 6110 nM and 75 nM, respectively.
Turning to `CSCC[C@H](NC(=O)[C@H](Cc1ccc(O)cc1)NC(=O)[C@H](CCC(N)=O)NC(=O)[C@@H](N)CC(C)C)C(=O)N[C@@H](CCCNC(N)=O)C(=O)N[C@@H](C)C(=O)N[C@@H](CC(=O)O)C(=O)N[C@@H](CCC(N)=O)C(=O)N[C@@H](C)C(=O)N[C@@H](C)C(=O)NCC(=O)NCC(=O)N[C@@H](CC(C)C)C(=O)N[C@@H](CCCNC(=N)N)C(=O)N[C@@H](CCC(N)=O)C(=O)O` [LQYMXADQAAGGLRQ] (H-LQYM[Cit]ADQAAGGLRQ-OH), the half-inhibitory concentration (IC50) was 69 nM in assay [1] (setting [11]) and 16 nM in assay [2] (setting [12]).
As for `CC[C@H](C)[C@H](NC(=O)[C@H](CCC(=O)O)NC(=O)[C@@H](NC(=O)[C@H](CC(=O)O)NC(=O)[C@H](CC(N)=O)NC(=O)[C@@H](N)CO)C(C)C)C(=O)N[C@@H](CCCNC(N)=O)C(=O)N[C@@H](C)C(=O)N[C@@H](CCC(=O)O)C(=O)NCC(=O)N[C@@H](CC(N)=O)C(=O)N[C@@H](CO)C(=O)N[C@@H](CCCNC(=N)N)C(=O)N[C@@H](Cc1ccccc1)C(=O)N[C@H](C(=O)O)[C@@H](C)O` [SNDVEIXAEGNSRFT] (H-SNDVEI[Cit]AEGNSRFT-OH), the IC50 in assay [1] (setting [11]) is 929 nM; in assay [2] (setting [12]), 1520 nM.
